Measurements: the NIST ThermoML archive (doi:10.1016/j.jct.2007.07.005)

Experiment: xn = mol fraction of the nth substance listed
Settings: Fluid (supercritical or subcritical phases), vibrating tube

CCCCCO [pentan-1-ol] + O=C=O
Settings | mass density [kg/m3]
323.05 K, 13025 kPa, x2 = 0.0816 | 806.04
323.05 K, 13028 kPa, x2 = 0.8067 | 814.77
323.05 K, 14019 kPa, x2 = 0.3624 | 822.92
323.05 K, 14021 kPa, x2 = 0.0816 | 806.82
323.05 K, 14024 kPa, x2 = 0.8067 | 820.63
323.05 K, 14024 kPa, x2 = 0.9757 | 722.69
323.05 K, 14031 kPa, x2 = 0.4651 | 829.31
323.05 K, 14965 kPa, x2 = 0.9757 | 740.5
323.05 K, 14990 kPa, x2 = 0.4651 | 830.68
323.05 K, 15001 kPa, x2 = 0.8067 | 825.93
323.05 K, 15006 kPa, x2 = 0.3624 | 823.89
323.05 K, 15017 kPa, x2 = 0.0816 | 807.57
323.05 K, 16002 kPa, x2 = 0.3624 | 824.89
323.05 K, 16018 kPa, x2 = 0.9757 | 757.4
323.05 K, 16021 kPa, x2 = 0.0816 | 808.32
323.05 K, 16027 kPa, x2 = 0.4651 | 832.14
323.05 K, 16066 kPa, x2 = 0.8067 | 831.24
323.05 K, 17005 kPa, x2 = 0.0816 | 809.07
323.05 K, 17018 kPa, x2 = 0.4651 | 833.51
323.05 K, 17021 kPa, x2 = 0.3624 | 825.87
323.05 K, 17021 kPa, x2 = 0.8067 | 835.7
323.05 K, 17052 kPa, x2 = 0.9757 | 771.8
323.05 K, 17994 kPa, x2 = 0.4651 | 834.85
323.05 K, 18001 kPa, x2 = 0.3624 | 826.81
323.05 K, 18002 kPa, x2 = 0.8067 | 840
323.05 K, 18028 kPa, x2 = 0.9757 | 783.78
323.05 K, 18049 kPa, x2 = 0.0816 | 809.83
323.05 K, 18975 kPa, x2 = 0.0816 | 810.52
323.05 K, 19012 kPa, x2 = 0.8067 | 844.21
323.05 K, 19034 kPa, x2 = 0.3624 | 827.81
323.05 K, 19035 kPa, x2 = 0.9757 | 794.96
323.05 K, 19057 kPa, x2 = 0.4651 | 836.29
323.05 K, 19998 kPa, x2 = 0.3624 | 828.72
323.05 K, 20002 kPa, x2 = 0.9757 | 804.8
323.05 K, 20009 kPa, x2 = 0.4651 | 837.54
323.05 K, 20044 kPa, x2 = 0.8067 | 848.26
323.05 K, 20047 kPa, x2 = 0.0816 | 811.3
323.05 K, 20997 kPa, x2 = 0.0816 | 811.98
323.05 K, 21033 kPa, x2 = 0.3624 | 829.67
323.05 K, 21034 kPa, x2 = 0.4651 | 838.89
323.05 K, 21046 kPa, x2 = 0.8067 | 851.97
323.05 K, 21049 kPa, x2 = 0.9757 | 814.6
323.05 K, 21991 kPa, x2 = 0.0816 | 812.7
323.05 K, 22013 kPa, x2 = 0.3624 | 830.58
323.05 K, 22017 kPa, x2 = 0.4651 | 840.19
323.05 K, 22017 kPa, x2 = 0.8067 | 855.5
323.05 K, 22020 kPa, x2 = 0.9757 | 823
323.05 K, 22767 kPa, x2 = 0.9757 | 829.12
323.05 K, 22970 kPa, x2 = 0.8067 | 858.77
323.05 K, 22997 kPa, x2 = 0.3624 | 831.49
323.05 K, 23022 kPa, x2 = 0.4651 | 841.47
323.05 K, 23054 kPa, x2 = 0.0816 | 813.46
323.05 K, 23901 kPa, x2 = 0.4651 | 842.61
323.05 K, 23987 kPa, x2 = 0.0816 | 814.12
323.05 K, 24062 kPa, x2 = 0.3624 | 832.47
323.05 K, 24707 kPa, x2 = 0.3624 | 833.04
323.05 K, 25014 kPa, x2 = 0.0816 | 814.87
323.06 K, 11010 kPa, x2 = 0.8573 | 775.4
323.06 K, 11028 kPa, x2 = 0.9216 | 732.55
323.06 K, 12011 kPa, x2 = 0.9216 | 751.44
323.06 K, 12019 kPa, x2 = 0.8573 | 787.14
323.06 K, 13011 kPa, x2 = 0.8573 | 796.54
323.06 K, 13032 kPa, x2 = 0.9216 | 766.64
323.06 K, 14000 kPa, x2 = 0.8573 | 804.66
323.06 K, 14011 kPa, x2 = 0.9216 | 778.82
323.06 K, 15019 kPa, x2 = 0.8573 | 812.19
323.06 K, 15028 kPa, x2 = 0.9216 | 789.81
323.06 K, 15995 kPa, x2 = 0.9216 | 799.06
323.06 K, 16044 kPa, x2 = 0.8573 | 819.03
323.06 K, 17005 kPa, x2 = 0.8573 | 824.92
323.06 K, 17047 kPa, x2 = 0.9216 | 808.18
323.06 K, 18002 kPa, x2 = 0.9216 | 815.71
323.06 K, 18049 kPa, x2 = 0.8573 | 830.83
323.06 K, 19010 kPa, x2 = 0.8573 | 835.97
323.06 K, 19033 kPa, x2 = 0.9216 | 823.28
323.06 K, 19996 kPa, x2 = 0.9216 | 829.83
323.06 K, 20006 kPa, x2 = 0.8573 | 840.95
323.06 K, 20987 kPa, x2 = 0.8573 | 845.64
323.06 K, 21053 kPa, x2 = 0.9216 | 836.6
323.06 K, 21758 kPa, x2 = 0.9216 | 840.85
323.06 K, 22019 kPa, x2 = 0.8573 | 850.27
323.06 K, 23021 kPa, x2 = 0.8573 | 854.64
323.06 K, 24075 kPa, x2 = 0.8573 | 858.97
323.08 K, 11058 kPa, x2 = 0.7274 | 819.26
323.08 K, 12031 kPa, x2 = 0.7274 | 823.11
323.08 K, 13034 kPa, x2 = 0.7274 | 826.85
323.08 K, 14040 kPa, x2 = 0.7274 | 830.38
323.08 K, 15010 kPa, x2 = 0.7274 | 833.59
323.08 K, 16026 kPa, x2 = 0.7274 | 836.83
323.08 K, 17015 kPa, x2 = 0.7274 | 839.83
323.08 K, 17987 kPa, x2 = 0.7274 | 842.68
323.08 K, 19054 kPa, x2 = 0.7274 | 845.68
323.08 K, 19981 kPa, x2 = 0.7274 | 848.2
323.08 K, 21008 kPa, x2 = 0.7274 | 850.93
323.08 K, 22014 kPa, x2 = 0.7274 | 853.5
323.08 K, 23019 kPa, x2 = 0.7274 | 855.98
323.08 K, 23836 kPa, x2 = 0.7274 | 857.96
323.11 K, 6015 kPa, x2 = 0.1347 | 801.54
323.11 K, 7002 kPa, x2 = 0.1347 | 802.41
323.11 K, 8020 kPa, x2 = 0.1347 | 803.27
323.11 K, 9002 kPa, x2 = 0.1347 | 804.12
323.11 K, 9115 kPa, x2 = 0.6054 | 824.57
323.11 K, 10017 kPa, x2 = 0.1347 | 804.97
323.11 K, 10057 kPa, x2 = 0.6054 | 826.64
323.11 K, 11055 kPa, x2 = 0.1347 | 805.83
323.11 K, 11062 kPa, x2 = 0.6054 | 828.82
323.11 K, 12029 kPa, x2 = 0.1347 | 806.64
323.11 K, 12049 kPa, x2 = 0.6054 | 830.92
323.11 K, 13031 kPa, x2 = 0.1347 | 807.47
323.11 K, 13068 kPa, x2 = 0.6054 | 833.05
323.11 K, 14038 kPa, x2 = 0.1347 | 808.26
323.11 K, 14062 kPa, x2 = 0.6054 | 835.02
323.11 K, 15022 kPa, x2 = 0.1347 | 809.05
323.11 K, 15036 kPa, x2 = 0.6054 | 836.96
323.11 K, 16015 kPa, x2 = 0.1347 | 809.84
323.11 K, 16032 kPa, x2 = 0.6054 | 838.86
323.11 K, 17022 kPa, x2 = 0.1347 | 810.64
323.11 K, 17053 kPa, x2 = 0.6054 | 840.77
323.11 K, 18041 kPa, x2 = 0.1347 | 811.39
323.11 K, 18069 kPa, x2 = 0.6054 | 842.62
323.11 K, 19010 kPa, x2 = 0.1347 | 812.15
323.11 K, 19041 kPa, x2 = 0.6054 | 844.36
323.11 K, 20025 kPa, x2 = 0.1347 | 812.91
323.11 K, 20032 kPa, x2 = 0.6054 | 846.09
